Laboratory results taken from paper PMC13342036, “Genomic and Proteolytic Profiling of Lacticaseibacillus sp. PRA205: Insights into PepX-Mediated Bioactive Peptide Metabolism” (Probiotics and Antimicrobial Proteins, 2025).
Read-outs that look alike come from different tables or passages of the source.

Tests used:
ACE = conditions: cited from earlier work
Description: (§1) Considering the cleavage specificity of PepX and the presence of proline residues in many dairy-derived BPs, the ability of PepX to hydrolyse selected BPs was evaluated. Selected BPs were well-known effective inhibitors of the enzymes ACE and di-peptidyl-peptidase-IV (DPP-IV). […] These two peptides have been identified in several fermented dairy products such as yoghurt and cheeses. The other peptides, ...

blood pressure [1] = conditions: humans; cited from earlier work
blood pressure [2] = conditions: rats; cited from earlier work
[3] = system: di-peptidyl-peptidase-IV (DPP-IV); conditions: cited from earlier work
Description: as §1

PepX = assay: Effect of protease inhibitors (PMSF, EDTA) on partially purified PepX activity, Gly-Pro-pNA substrate; type: biochemical, Lacticaseibacillus sp. PRA205; conditions: pH 7.0, 37 °C; for effect on PepX enzymatic activity (decrease): inhibitor 1 mmol/L
Description: PepX activity in the Lcb. casei PRA205 cytoplasmic extract was assessed in a 96-well plate using glycyl-prolyl-p-nitroanilide (Gly-Pro-pNA) as a specific substrate in the absence and presence of inhibitors. The reaction mixture containing 235 µL of 50 mmol/L Tris-Cl buffer (pH 7) and 5 µL of Gly-Pro-pNA substrate (previously dissolved in the same buffer in a concentration of 6.4 mmol/L) was pre-incubated at 37 °C for 5 min, before the addition of 10 µL of cytoplasmic extract. The same reactions were also carried out in the presence of EDTA and PMSF at increasing concentrations of 0.1, 0.5, 1, 5 and 10 mmol/L. Controls contained a buffer instead of an extract. After incubation for 2 h at 37 °C, reactions were stopped with 50 µL of acetic acid (30%) and the release of pNA was measured spectrophotometrically at 405 nm.
The effect of temperature on the PepX activity was determined as described above, modifying the incubation temperature while maintaining a constant pH of 7. The assay was carried out at four temperatures: 5 °C, 35 °C, 40 °C, and 45 °C. The effect of pH on enzyme activity was evaluated at a constant temperature of 37 °C by modifying the pH of the reaction buffer. Tris-HCL buffer (50 mmol/L) was utilized for reactions at pH 4–9, whereas sodium Tris-HCL buffer (50 mmol/L) was used for the assay at pH 7.0. The effect of protease inhibitors was tested by supplementing the reaction mix with EDTA or PMSF at final concentrations of 0, 1, 2, 5, or 10 mmol/L under standard conditions (pH 7.0, 37 °C).

**Q.** For “Val-Pro-Pro [VPP, anti-hypertensive lactotripeptide derived from β-casein]”, which ACE inhibition (ACE) is on record?
**A.** potent ACE inhibitors

**Q.** And the “reduction of blood pressure in vivo” value (blood pressure [1])?
**A.** effective in vivo in reducing blood pressure

**Q.** What about the “reduction of blood pressure in vivo” value (blood pressure [2]) of the same compound?
**A.** effective in vivo in reducing blood pressure

**Q.** Which DPP-IV inhibition [3] does the source give for IPPL here?
**A.** potent DPP-IV inhibitors

**Q.** Which ACE inhibition (ACE) does the source give for “Ile-Pro-Pro [IPP, anti-hypertensive lactotripeptide derived from β-casein]” here?
**A.** potent ACE inhibitors

**Q.** And the “reduction of blood pressure in vivo” value (blood pressure [1])?
**A.** effective in vivo in reducing blood pressure

**Q.** What about the “reduction of blood pressure in vivo” value (blood pressure [2]) of the same compound?
**A.** effective in vivo in reducing blood pressure

**Q.** With `O=S(=O)(F)Cc1ccccc1` [PMSF] as the compound, how does the “effect on PepX enzymatic activity (decrease)” value (PepX; vs control without inhibitor) read?
**A.** more than 40%

**Q.** And the “effect on PepX enzymatic activity” value (PepX; inhibitor 5 mmol/L)?
**A.** completely abolished

**Q.** What about the “effect on PepX enzymatic activity” value (PepX; inhibitor 10 mmol/L) of the same compound?
**A.** completely abolished

**Q.** Which DPP-IV inhibition [3] does the source give for APFPE here?
**A.** potent DPP-IV inhibitors

**Q.** With LPPT as the compound, how does the DPP-IV inhibition [3] read?
**A.** potent DPP-IV inhibitors

**Q.** Which “effect on PepX enzymatic activity (decrease)” value (PepX; vs control without inhibitor) does the source give for `O=C(O)CN(CCN(CC(=O)O)CC(=O)O)CC(=O)O` [EDTA] here?
**A.** no effect

**Q.** What about the “residual PepX activity” value (PepX; inhibitor 10 mmol/L, vs control without inhibitor) of the same compound?
**A.** 40%
